Assay type in all cases: cell-based
Data set [1] has as its system Acinetobacter baumannii DSM 30008. To be noted: DSM 30008. How it is done: (§1) Stock solutions were kept at +4° C., light protected.
(§2) The selective antimicrobial activities of the peptides were determined in 96-well plates (Greiner, polystyrene) by the standard NCCLS broth microdilution method (National Committee for Clinical Laboratory Standards 1993. Methods for dilution antimicrobial susceptibility tests for bacteria that grow aerobically, 3rd ed. Approved standard M7-A6; National Committee for Clinical laboratory standards, Wayne, Pa.) with slight modifications. Inocula of the microorganisms were diluted into Mueller-Hinton II (MH, cation adjusted) broth and compared with a 0.5 McFarland standard to give appr. 10^6 colony forming units (CFU)/mL. Aliquots (90 μl) of inoculate were added to 10 μl of MH broth+P-80 (Polysorbate 80, 0.002% final concentration) containing the peptide in serial two-fold dilutions. The following microorganisms were used to determine antibiotic selectivity of the peptides: Escherichia coli ATCC 25922, Klebsiella pneumoniae ATCC 13883 and Acinetobacter baumannii DSM 30008.

Data set [2] deals with Escherichia coli ATCC 25922. To be noted: ATCC 25922. The protocol: as §1, §2
In data set [3] the test system is Klebsiella pneumoniae ATCC 13883. To be noted: ATCC 13883. How it is done: as §1, §2
The test system of data set [4] is human red blood cells (hRBC). The data set is described as follows: Hemolysis of human red blood cells. To be noted: red cells of human, 1 h, 100. The protocol:
as §1
Percent hemolysis was calculated as follows: (OD540peptide/OD540H2O)×100%.

The structures appear in SMILES notation. Where a SMILES comes first, the peptide text is derived from it. Bridges are numbered along the chain shown (N, C = ends). [ ]: non-standard residue; d: D form. Tle = CC(C)(C)[C@H](N)C(=O)O; dDab = NCC[C@@H](N)C(=O)O; Dab = NCC[C@H](N)C(=O)O; dAze = O=C(O)[C@H]1CCN1; Dap = NC[C@H](N)C(=O)O

Consider `CC[C@H](C)[C@@H]1NC(=O)[C@@H]2CCCN2C(=O)[C@H]2CCCN2C(=O)[C@H](CO)NC(=O)[C@@H]2CSSC[C@H](NC1=O)C(=O)N[C@@H](Cc1ccc(O)cc1)C(=O)N[C@@H](CCN)C(=O)N[C@@H](CCCN)C(=O)N[C@H](CCN)C(=O)N[C@@H](CCN)C(=O)N[C@@H](Cc1c[nH]c3ccccc13)C(=O)N[C@@H](CCN)C(=O)N[C@@H](C(C)(C)C)C(=O)N2` [Example 10, cyclo(-Ile-Cys-Tyr-Dab-Orn-^DDab-Dab-Trp-Dab-tBuGly-Cys-Ser-^DPro-Pro-)] (HELM PEPTIDE1{I.C.Y.[Dab].[Orn].[NCC[C@@H](N[*:1])C(=O)[*:2]].[Dab].W.[Dab].[CC(C)(C)[C@H](N[*:1])C(=O)[*:2]].C.S.[dP].P}$PEPTIDE1,PEPTIDE1,2:R3-11:R3|PEPTIDE1,PEPTIDE1,1:R1-14:R2$$$V2.0), for which the “Acinetobacter baumannii DSM 30008 MIC” value in data set [1] came to 1 µg/mL. For the same compound, in data set [2], the “Escherichia coli ATCC 25922 MIC” value is 1 µg/mL. Further, the “Klebsiella pneumoniae ATCC 13883 MIC” value in data set [3] stood at 0.25 µg/mL. The “Hemolysis at 100 μg/mL” value in data set [4] came to 1%.
With `CC[C@H](C)[C@@H]1NC(=O)[C@H](Cc2ccc(O)cc2)NC(=O)[C@H]2CCCN2C(=O)[C@H](CO)NC(=O)[C@@H]2CSSC[C@H](NC1=O)C(=O)N[C@@H](Cc1ccc(O)cc1)C(=O)N[C@@H](CCN)C(=O)N[C@@H](CCCN)C(=O)N[C@H](CCN)C(=O)N[C@@H](CCN)C(=O)N[C@@H](Cc1c[nH]c3ccccc13)C(=O)N[C@@H](CCN)C(=O)N[C@@H](C(C)(C)C)C(=O)N2` [Example 11, cyclo(-Ile-Cys-Tyr-Dab-Orn-^DDab-Dab-Trp-Dab-tBuGly-Cys-Ser-^DPro-Tyr-)] (HELM PEPTIDE1{C.S.[dP].Y.I.C.Y.[Dab].[Orn].[NCC[C@@H](N[*:1])C(=O)[*:2]].[Dab].W.[Dab].[CC(C)(C)[C@H](N[*:1])C(=O)[*:2]]}$PEPTIDE1,PEPTIDE1,1:R3-6:R3|PEPTIDE1,PEPTIDE1,1:R1-14:R2$$$V2.0), in data set [1], the “Acinetobacter baumannii DSM 30008 MIC” value was determined as 1 µg/mL. For the same compound, the “Escherichia coli ATCC 25922 MIC” value in data set [2] is 2 µg/mL. Besides, the “Klebsiella pneumoniae ATCC 13883 MIC” value in data set [3] worked out at 0.5 µg/mL. Besides, the “Hemolysis at 100 μg/mL” value in data set [4] is on record as 1%.
In the same order, the values of `CC(C)[C@@H]1NC(=O)[C@@H]2CCCN2C(=O)[C@H]2CCN2C(=O)[C@H]([C@@H](C)O)NC(=O)[C@@H]2CC(=O)NCC[C@H](NC1=O)C(=O)N[C@@H](Cc1ccc(O)cc1)C(=O)N[C@@H](CCN)C(=O)N[C@@H](CN)C(=O)N[C@H](CCN)C(=O)N[C@@H](CCN)C(=O)N[C@@H](Cc1c[nH]c3ccccc13)C(=O)N[C@@H](CCN)C(=O)N[C@@H](C(C)(C)C)C(=O)N2` [Example 12, cyclo(-Val-Dab-Tyr-Dab-Dap-^DDab-Dab-Trp-Dab-tBuGly-Asp-Thr-^DAzt-Pro-)] (cyclo(DT[dAze]PV[Dab]Y[Dab][Dap][dDab][Dab]W[Dab][Tle]); lactam 1-6) are 1 µg/mL, 0.5 µg/mL, 0.25 µg/mL and 4%.
For `CC(C)(C)[C@@H]1NC(=O)[C@H](CCN)NC(=O)[C@H](Cc2c[nH]c3ccccc23)NC(=O)[C@H](CCN)NC(=O)[C@@H](CCN)NC(=O)[C@H](CCCN)NC(=O)[C@H](CCCNC(=N)N)NC(=O)[C@H](Cc2ccc(O)cc2)NC(=O)[C@@H]2CCNC(=O)C[C@H](NC1=O)C(=O)N[C@@H](CO)C(=O)N1CCC[C@@H]1C(=O)N1CCC[C@H]1C(=O)N[C@@H](Cc1ccccc1)C(=O)N2` [Example 13, cyclo(-Phe-Dab-Tyr-Arg-Orn-^DDab-Dab-Trp-Dab-tBuGly-Asp-Ser-^DPro-Pro-)] (HELM PEPTIDE1{F.[Dab].Y.R.[Orn].[NCC[C@@H](N[*:1])C(=O)[*:2]].[Dab].W.[Dab].[CC(C)(C)[C@H](N[*:1])C(=O)[*:2]].D.S.[dP].P}$PEPTIDE1,PEPTIDE1,2:R3-11:R3|PEPTIDE1,PEPTIDE1,1:R1-14:R2$$$V2.0), in that order: 1 µg/mL, 0.25 µg/mL, 0.5 µg/mL and 1%.
For `CC(C)(C)[C@@H]1NC(=O)[C@H](CCN)NC(=O)[C@H](Cc2c[nH]c3ccccc23)NC(=O)[C@H](CCN)NC(=O)[C@@H](CCN)NC(=O)[C@H](CCN)NC(=O)[C@H](CCN)NC(=O)[C@H](Cc2ccc(O)cc2)NC(=O)[C@@H]2CCNC(=O)C[C@H](NC1=O)C(=O)N[C@@H](CO)C(=O)N1CCC[C@@H]1C(=O)N1CCC[C@H]1C(=O)N[C@@H](Cc1c[nH]c3ccccc13)C(=O)N2` [Example 14, cyclo(-Trp-Dab-Tyr-Dab-Dab-^DDab-Dab-Trp-Dab-tBuGly-Asp-Ser-^DPro-Pro-)] (HELM PEPTIDE1{W.[Dab].Y.[Dab].[Dab].[NCC[C@@H](N[*:1])C(=O)[*:2]].[Dab].W.[Dab].[CC(C)(C)[C@H](N[*:1])C(=O)[*:2]].D.S.[dP].P}$PEPTIDE1,PEPTIDE1,2:R3-11:R3|PEPTIDE1,PEPTIDE1,1:R1-14:R2$$$V2.0), in that order: 0.5 µg/mL, 0.25 µg/mL, 0.25 µg/mL and 2%.
Consider `CC(C)(C)[C@@H]1NC(=O)[C@H](CCN)NC(=O)[C@H](Cc2c[nH]c3ccccc23)NC(=O)[C@H](CCN)NC(=O)[C@H](CCN)NC(=O)[C@H](CCN)NC(=O)[C@H](CCN)NC(=O)[C@H](Cc2ccc(O)cc2)NC(=O)[C@@H]2CCNC(=O)C[C@H](NC1=O)C(=O)N[C@@H](CO)C(=O)N1CC[C@@H]1C(=O)N1CCC[C@H]1C(=O)N[C@@H](Cc1c[nH]c3ccccc13)C(=O)N2` [Example 15, cyclo(-Trp-Dab-Tyr-Dab-Dab-Dab-Dab-Trp-Dab-tBuGly-Asp-Ser-^DAzt-Pro-)] (HELM PEPTIDE1{D.S.[O=C([C@H]1CCN1[*:1])[*:2]].P.W.[Dab].Y.[Dab].[Dab].[Dab].[Dab].W.[Dab].[CC(C)(C)[C@H](N[*:1])C(=O)[*:2]]}$PEPTIDE1,PEPTIDE1,1:R3-6:R3|PEPTIDE1,PEPTIDE1,1:R1-14:R2$$$V2.0), for which the “Acinetobacter baumannii DSM 30008 MIC” value in data set [1] is 0.5 µg/mL. The “Escherichia coli ATCC 25922 MIC” value in data set [2] amounted to 0.25 µg/mL. The “Klebsiella pneumoniae ATCC 13883 MIC” value in data set [3] amounted to 0.25 µg/mL. In addition, in data set [4], the “Hemolysis at 100 μg/mL” value was 1%.
Regarding `CC(C)[C@@H]1NC(=O)[C@@H]2CCCN2C(=O)[C@H]2CCCN2C(=O)[C@H](CO)NC(=O)[C@@H]2CC(=O)NCC[C@H](NC1=O)C(=O)N[C@@H](Cc1ccc(O)cc1)C(=O)N[C@@H](CCN)C(=O)N[C@@H](CCN)C(=O)N[C@H](CCN)C(=O)N[C@@H](CCN)C(=O)N[C@@H](Cc1c[nH]c3ccccc13)C(=O)N[C@@H](CCN)C(=O)N[C@@H](c1ccccc1)C(=O)N2` [Example 16, cyclo(-Val-Dab-Tyr-Dab-Dab-^DDab-Dab-Trp-Dab-Phg-Asp-Ser-^DPro-Pro-)] (HELM PEPTIDE1{V.[Dab].Y.[Dab].[Dab].[NCC[C@@H](N[*:1])C(=O)[*:2]].[Dab].W.[Dab].[Phg].D.S.[dP].P}$PEPTIDE1,PEPTIDE1,2:R3-11:R3|PEPTIDE1,PEPTIDE1,1:R1-14:R2$$$V2.0), the “Acinetobacter baumannii DSM 30008 MIC” value in data set [1] is 1 µg/mL. In data set [2], the “Escherichia coli ATCC 25922 MIC” value came out at 0.5 µg/mL. In data set [3], the “Klebsiella pneumoniae ATCC 13883 MIC” value turned out to be 0.5 µg/mL. In data set [4], the “Hemolysis at 100 μg/mL” value was determined as 1%.
For the compound `CC(C)[C@@H]1NC(=O)[C@@H]2CCCN2C(=O)[C@H]2CCCN2C(=O)[C@H](Cc2c[nH]cn2)NC(=O)[C@@H]2CC(=O)NCC[C@H](NC1=O)C(=O)N[C@@H](Cc1ccc(O)cc1)C(=O)N[C@@H](CCN)C(=O)N[C@@H]([C@@H](C)O)C(=O)N[C@@H](CCN)C(=O)N[C@@H](CCN)C(=O)N[C@@H](Cc1c[nH]c3ccccc13)C(=O)N[C@@H](CCN)C(=O)N[C@@H](C(C)(C)C)C(=O)N2` [Example 17, cyclo(-Val-Dab-Tyr-Dab-Thr-Dab-Dab-Trp-Dab-tBuGly-Asp-His-^DPro-Pro-)] (HELM PEPTIDE1{V.[Dab].Y.[Dab].T.[Dab].[Dab].W.[Dab].[CC(C)(C)[C@H](N[*:1])C(=O)[*:2]].D.H.[dP].P}$PEPTIDE1,PEPTIDE1,2:R3-11:R3|PEPTIDE1,PEPTIDE1,1:R1-14:R2$$$V2.0), the “Acinetobacter baumannii DSM 30008 MIC” value in data set [1] amounted to 4 µg/mL. Further, in data set [2], the “Escherichia coli ATCC 25922 MIC” value worked out at 2 µg/mL. The “Klebsiella pneumoniae ATCC 13883 MIC” value in data set [3] was found to be 2 µg/mL. In addition, the “Hemolysis at 100 μg/mL” value in data set [4] is given as 1%.
Consider `CC(C)C[C@@H]1NC(=O)[C@@H]2CCCN2C(=O)[C@H]2CCCN2C(=O)[C@H](CO)NC(=O)[C@@H]2CNC(=O)CC[C@H](NC1=O)C(=O)N[C@@H](Cc1ccc(O)cc1)C(=O)N[C@@H](CCN)C(=O)N[C@@H](CCCN)C(=O)N[C@@H](CCN)C(=O)N[C@@H](CCN)C(=O)N[C@@H](Cc1c[nH]c3ccccc13)C(=O)N[C@@H](CCN)C(=O)N[C@@H](C(C)(C)C)C(=O)N2` [Example 18, cyclo(-Leu-Glu-Tyr-Dab-Orn-Dab-Dab-Trp-Dab-tBuGly-Dap-Ser-^DPro-Pro-)] (HELM PEPTIDE1{L.E.Y.[Dab].[Orn].[Dab].[Dab].W.[Dab].[CC(C)(C)[C@H](N[*:1])C(=O)[*:2]].[O=C([C@H](CN[*:3])N[*:1])[*:2]].S.[dP].P}$PEPTIDE1,PEPTIDE1,2:R3-11:R3|PEPTIDE1,PEPTIDE1,1:R1-14:R2$$$V2.0), for which, in data set [1], the “Acinetobacter baumannii DSM 30008 MIC” value amounted to 3 µg/mL. For the same compound, the “Escherichia coli ATCC 25922 MIC” value in data set [2] amounted to 2 µg/mL. The “Klebsiella pneumoniae ATCC 13883 MIC” value in data set [3] turned out to be 0.5 µg/mL. Also, the “Hemolysis at 100 μg/mL” value in data set [4] turned out to be 0%.

(Values after patent publication US10259847B2, “Beta-hairpin peptidomimetics” (POLYPHOR AG, priority 2014, dated 2019).)
